Measurements published in PMC10139140, “Synthesis of Novel 2-(Cyclopentylamino)thiazol-4(5H)-one Derivatives with Potential Anticancer, Antioxidant, and 11β-HSD Inhibitory Activities” (International Journal of Molecular Sciences, 2023).

How the values were obtained:
11β-HSD2 = biological target: T1, 11β-HSD2 (Homo sapiens, UniProt P80365); experiment: Inhibition of 11β-HSD2 (cortisol to cortisone, human microsomes, cortisol ELISA); assay type: biochemical; details: 2.5 h, 37 °C
T1 construct: Human liver microsomes were used as a source of 11β-HSD2 enzyme; tissue XenoTech Lot No. 1710160; host or cells: human kidney microsomes, mixed gender (method text says human liver microsomes)
T1 sequence (P80365 1-405): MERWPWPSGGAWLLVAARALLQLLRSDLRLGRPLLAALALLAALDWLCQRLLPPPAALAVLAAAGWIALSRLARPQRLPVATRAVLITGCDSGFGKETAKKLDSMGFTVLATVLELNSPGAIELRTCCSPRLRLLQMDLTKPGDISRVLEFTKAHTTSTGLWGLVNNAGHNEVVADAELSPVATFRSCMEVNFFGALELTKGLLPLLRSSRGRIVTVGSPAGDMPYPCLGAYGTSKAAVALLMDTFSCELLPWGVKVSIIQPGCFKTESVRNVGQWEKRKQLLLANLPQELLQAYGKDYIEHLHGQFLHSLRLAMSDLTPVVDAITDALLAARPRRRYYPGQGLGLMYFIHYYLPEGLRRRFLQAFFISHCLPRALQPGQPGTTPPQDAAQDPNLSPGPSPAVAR
Description: The resulting solution with a final volume of 100 µL was incubated for 2.5 h at 37 °C. […] The level of unreacted cortisol was measured by a commercially available ELISA kit.

BJ cells = experiment: MTS metabolic activity assay, BJ cells; assay type: cell-based; details: Homo sapiens, 72 h, read-out: Cell metabolic activity (MTS), % of untreated control
In short: (§1)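 Following 24 h attachment, the cells received compounds at several concentrations for 72 h at 37 °C, 5% CO2. MTS reagent then stood for 3 h before readings at 590 nm and 620 nm; results normalised to untreated cells as 100%.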

[1] = test system: human colon carcinoma (Caco-2); experiment: MTS metabolic activity assay, Caco-2 cells; assay type: cell-based; details: 72 h; for viability at 10 µM / viability at 20 µM / viability at 50 µM / viability at 100 µM / viability at 200 µM / viability at 300 µM / viability at 500 µM: Homo sapiens, read-out: Cell metabolic activity (MTS), % of untreated control; for viability at 10 µM: Caco-2, 10 µM; for viability at 20 µM: Caco-2, 20 µM; for viability at 50 µM: Caco-2, 50 µM; for viability at 100 µM: Caco-2, 100 µM; for viability at 200 µM: Caco-2, 200 µM; for viability at 300 µM: Caco-2, 300 µM; for viability at 500 µM: Caco-2, 500 µM
In short: as §1

11β-HSD1 = biological target: T2, 11β-HSD1 (Homo sapiens, UniProt P28845); experiment: Inhibition of 11β-HSD1 (cortisone to cortisol, human liver microsomes, cortisol ELISA); assay type: biochemical; details: for inhibition at 10 µM: 2.5 h, 37 °C
T2 construct: Human liver microsomes were used as a source of 11β-HSD1 enzyme; tissue XenoTech Lot No. 1410013; host or cells: pooled human liver microsomes, mixed gender
T2 sequence (P28845 whole entry): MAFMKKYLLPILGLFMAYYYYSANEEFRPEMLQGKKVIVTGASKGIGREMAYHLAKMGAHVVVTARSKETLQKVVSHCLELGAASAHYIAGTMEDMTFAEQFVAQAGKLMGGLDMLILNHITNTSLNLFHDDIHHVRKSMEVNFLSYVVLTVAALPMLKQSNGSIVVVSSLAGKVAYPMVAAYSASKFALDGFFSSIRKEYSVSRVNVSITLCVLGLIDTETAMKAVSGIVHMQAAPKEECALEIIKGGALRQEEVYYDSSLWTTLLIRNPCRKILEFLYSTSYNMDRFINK
In short: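 Human liver microsomal conversion of cortisone to cortisol, incubated 2.5 h at 37 °C and stopped with 18β-glycyrrhetinic acid. Cortisol was quantified by ELISA against inhibitor-free controls.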

glioma (U-118 MG) = experiment: MTS metabolic activity assay, U-118 MG cells; assay type: cell-based; details: 72 h; for viability at 10 µM / viability at 20 µM / viability at 50 µM / viability at 100 µM / viability at 200 µM / viability at 300 µM / viability at 500 µM: Homo sapiens, U-118-MG, U118-MG, read-out: Cell metabolic activity (MTS), % of untreated control
In short: as §1

[2] = test system: skin melanoma (SK-MEL-30); experiment: MTS metabolic activity assay, SK-MEL-30 cells; assay type: cell-based; details: 72 h; for viability at 10 µM / viability at 20 µM / viability at 50 µM / viability at 100 µM / viability at 200 µM / viability at 300 µM / viability at 500 µM: Homo sapiens, read-out: Cell metabolic activity (MTS), % of untreated control; for viability at 10 µM: SK-MEL-30, 10 µM; for viability at 20 µM: SK-MEL-30, 20 µM; for viability at 50 µM: SK-MEL-30, 50 µM; for viability at 100 µM: SK-MEL-30, 100 µM; for viability at 200 µM: SK-MEL-30, 200 µM; for viability at 300 µM: SK-MEL-30, 300 µM; for viability at 500 µM: SK-MEL-30, 500 µM; for cell viability, decreases to: SK-MEL-30, higher concentrations, range given for the most effective substances together
In short: as §1

[3] = test system: human pancreatic carcinoma (PANC-1); experiment: MTS metabolic activity assay, PANC-1 cells; assay type: cell-based; details: for viability at 10 µM / viability at 20 µM / viability at 50 µM / viability at 100 µM / viability at 200 µM / viability at 300 µM / viability at 500 µM: Homo sapiens, 72 h, read-out: Cell metabolic activity (MTS), % of untreated control; for viability at 10 µM: PANC-1, 10 µM; for viability at 20 µM: PANC-1, 20 µM; for viability at 50 µM: PANC-1, 50 µM; for viability at 100 µM: PANC-1, 100 µM; for viability at 200 µM: PANC-1, 200 µM; for viability at 300 µM: PANC-1, 300 µM; for viability at 500 µM: PANC-1, 500 µM; for highest increase in proliferation (cell metabolic activity): PANC-1, 72 h, range given for the named substances together
In short: as §1

[4] = test system: human breast carcinoma (MDA-MB-231); experiment: MTS metabolic activity assay, MDA-MB-231 cells; assay type: cell-based; details: 72 h; for viability at 10 µM / viability at 20 µM / viability at 50 µM / viability at 100 µM / viability at 200 µM / viability at 300 µM / viability at 500 µM: Homo sapiens, read-out: Cell metabolic activity (MTS), % of untreated control; for viability at 10 µM: MDA-MB-231, 10 µM; for viability at 20 µM: MDA-MB-231, 20 µM; for viability at 50 µM: MDA-MB-231, 50 µM; for viability at 100 µM: MDA-MB-231, 100 µM; for viability at 200 µM: MDA-MB-231, 200 µM; for viability at 300 µM: MDA-MB-231, 300 µM; for viability at 500 µM: MDA-MB-231, 500 µM
In short: as §1

O=C1N=C(NC2CCCC2)SC1c1ccc(Br)cc1 (stereo not shown) [Compound 3g, 2-(cyclopentylamino)-5-(4-bromophenyl)thiazol-4(5H)-one]
inhibition at 10 µM (11β-HSD2): 38.6 ± 1.39% | viability at 10 µM (BJ cells): 99.7% | viability at 20 µM (BJ cells): 97.8% | viability at 50 µM (BJ cells): 90.8% | viability at 100 µM (BJ cells): 88.1% | viability at 200 µM (BJ cells): 84.2% | viability at 300 µM (BJ cells): 57.3% | viability at 500 µM (BJ cells): 55.4% | cell viability, decreases to ([1]; Caco-2, higher concentrations, range given for the most effective substances together): 20–65% | viability at 10 µM [1]: 91.9% | viability at 20 µM [1]: 88.8% | viability at 50 µM [1]: 87.3% | viability at 100 µM [1]: 80.7% | viability at 200 µM [1]: 56.3% | viability at 300 µM [1]: 30.1% | viability at 500 µM [1]: 30.9% | IC50 (11β-HSD1): 180 ± 30 nM | inhibition at 10 µM (11β-HSD1): 87 ± 2.17% | viability at 10 µM (glioma (U-118 MG)): 114% | viability at 20 µM (glioma (U-118 MG)): 110% | viability at 50 µM (glioma (U-118 MG)): 105% | viability at 100 µM (glioma (U-118 MG)): 104% | viability at 200 µM (glioma (U-118 MG)): 87.3% | viability at 300 µM (glioma (U-118 MG)): 40.6% | viability at 500 µM (glioma (U-118 MG)): 32.3% | viability at 10 µM [2]: 95.4% | viability at 20 µM [2]: 97.5% | viability at 50 µM [2]: 98.3% | viability at 100 µM [2]: 93.1% | viability at 200 µM [2]: 71.5% | viability at 300 µM [2]: 29.7% | viability at 500 µM [2]: 25.2% | cell viability, decreases to [2]: 20–65% | viability at 10 µM [3]: 116% | viability at 20 µM [3]: 122% | viability at 50 µM [3]: 145% | viability at 100 µM [3]: 139% | viability at 200 µM [3]: 94.1% | viability at 300 µM [3]: 57.9% | viability at 500 µM [3]: 57.2% | highest increase in proliferation (cell metabolic activity) [3]: 115 to 144% | viability at 10 µM [4]: 92.9% | viability at 20 µM [4]: 93.6% | viability at 50 µM [4]: 84.6% | viability at 100 µM [4]: 82% | viability at 200 µM [4]: 61.4% | viability at 300 µM [4]: 43.9% | viability at 500 µM [4]: 38% | cell viability, decreases to ([4]; MDA-MB-231, higher concentrations, range given for the most effective substances together): 20–65%

O=C1N=C(NC2CCCC2)SC1c1ccccc1 (stereo not shown) [Compound 3f, 2-(cyclopentylamino)-5-phenylthiazol-4(5H)-one]
inhibition at 10 µM (11β-HSD2): 36.5 ± 3.07% | viability at 10 µM (BJ cells): 107% | viability at 20 µM (BJ cells): 102% | viability at 50 µM (BJ cells): 102% | viability at 100 µM (BJ cells): 106% | viability at 200 µM (BJ cells): 105% | viability at 300 µM (BJ cells): 106% | viability at 500 µM (BJ cells): 96.8% | viability at 10 µM [1]: 91.3% | viability at 20 µM [1]: 90.4% | viability at 50 µM [1]: 93.7% | viability at 100 µM [1]: 87.4% | viability at 200 µM [1]: 89.7% | viability at 300 µM [1]: 87.1% | viability at 500 µM [1]: 75.2% | IC50 (11β-HSD1): 1100 ± 80 nM | inhibition at 10 µM (11β-HSD1): 64.3 ± 5.07% | viability at 10 µM (glioma (U-118 MG)): 116% | viability at 20 µM (glioma (U-118 MG)): 114% | viability at 50 µM (glioma (U-118 MG)): 114% | viability at 100 µM (glioma (U-118 MG)): 115% | viability at 200 µM (glioma (U-118 MG)): 110% | viability at 300 µM (glioma (U-118 MG)): 106% | viability at 500 µM (glioma (U-118 MG)): 86.8% | highest increase in proliferation (cell metabolic activity) (glioma (U-118 MG); U-118 MG, range given for the named substances together): 115 to 144% | viability at 10 µM [2]: 96.1% | viability at 20 µM [2]: 98.2% | viability at 50 µM [2]: 99.7% | viability at 100 µM [2]: 100% | viability at 200 µM [2]: 93.8% | viability at 300 µM [2]: 73.2% | viability at 500 µM [2]: 50% | cell viability, decreases to [2]: 20–65% | viability at 10 µM [3]: 110% | viability at 20 µM [3]: 102% | viability at 50 µM [3]: 117% | viability at 100 µM [3]: 117% | viability at 200 µM [3]: 137% | viability at 300 µM [3]: 141% | viability at 500 µM [3]: 141% | highest increase in proliferation (cell metabolic activity) [3]: 115 to 144% | viability at 10 µM [4]: 96.2% | viability at 20 µM [4]: 100% | viability at 50 µM [4]: 95.3% | viability at 100 µM [4]: 95.9% | viability at 200 µM [4]: 87.8% | viability at 300 µM [4]: 79.1% | viability at 500 µM [4]: 78.2%
